Experimental data taken from patent US10087172B2, “Compounds and their methods of use” (AGIOS PHARMACEUTICALS, INC, priority 2012, dated 2018).

Target: T1, glutaminase (GAC) (Homo sapiens, UniProt O94925)
T1 sequence (O94925 55-598 isoform O94925-3 limits assumed): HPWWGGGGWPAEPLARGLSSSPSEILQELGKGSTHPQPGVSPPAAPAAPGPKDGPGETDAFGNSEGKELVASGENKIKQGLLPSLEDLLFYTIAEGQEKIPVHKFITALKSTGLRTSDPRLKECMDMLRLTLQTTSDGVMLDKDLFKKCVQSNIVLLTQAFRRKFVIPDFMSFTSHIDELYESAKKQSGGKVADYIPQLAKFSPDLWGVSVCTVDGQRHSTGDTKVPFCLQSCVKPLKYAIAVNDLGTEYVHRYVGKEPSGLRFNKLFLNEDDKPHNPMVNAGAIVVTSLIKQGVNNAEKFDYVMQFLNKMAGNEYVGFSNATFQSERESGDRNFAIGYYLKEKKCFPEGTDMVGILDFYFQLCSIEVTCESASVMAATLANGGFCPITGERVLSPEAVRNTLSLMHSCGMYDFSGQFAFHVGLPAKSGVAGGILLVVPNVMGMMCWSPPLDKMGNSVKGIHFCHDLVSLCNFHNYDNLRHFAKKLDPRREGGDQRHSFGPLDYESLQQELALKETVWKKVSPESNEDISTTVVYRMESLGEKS
Assay: Glutaminase (GAC) coupled endpoint enzymatic assay (glutamate dehydrogenase/diaphorase/resazurin, Ex544/Em590)
Format: biochemical
Conditions: inhibition of glutaminase, tested in an assay of Example A or Example B; class symbols A-E
Excerpt: In certain embodiments, exemplary compounds of Formula I include the compounds described in Table 1 and in the Examples. A compound described herein may be tested for its ability to inhibit glutaminase, e.g., by an assay as described in the Examples. For simplicity, the inhibition activity of these compounds is represented as an IC50 tested in an assay of Example A or Example B in Table 1. […] “N/A” refers to compounds wherein the IC50 is unavailable.
In this example, the enzymatic activity of glutaminase is measured through a coupled endpoint assay. Glutamine and phosphate are supplied to GAC at a concentration equal to Km and AC50, respectively, and GAC concentration is adjusted to give a linear reaction for 60 minutes. The glutamate produced is converted to 2-OG by a kinetic excess of glutamate dehydrogenase. This second step is configured for 2× Km for NAD, since excess NAD is inhibitory. However, a kinetic excess of the third coupling enzyme, diaphorase, recycles NAD from NADH to keep the NAD concentration constant during the timecourse of the assay. Diaphorase, also supplied in kinetic excess, oxidizes NADH produced by GDH back to NAD with the concomitant reduction of rezasurin to the highly fluorescent resorufin. Resorufin in measured after the assay is stopped with SDS by Ex544/Em590. A reduction in the signal indicates inhibition of some component of the coupled enzyme system. Prospective hits are counterscreened against GDH/diaphorase alone to remove hits to the coupling enzyme system in a second assay.
2. Buffers 2× Buffer (300 mM NaCl, 100 mM HEPES pH 8.5, 0.1% BSA, 0.5 mM EDTA, 100 mM sodium phosphate pH 8.5) 5× Substrate Mix (1× Buffer final concentration, with 13 mM glutamine, 100 μM resazurin, 50 μg/ml diaphorase) 1.2× Enzyme Mix (1× Buffer final concentration, with 0.875 μg/ml GAC, 1.56 mM NAD, 6.25 units/ml GDH) Stop Mix (6% SDS in ddH2O) Reaction Procedure 1. Add 1 μl compound in 100% DMSO 2. Add 40 μl of Enzyme Mix and incubate for 60 minute at room temperature 3. Add 10 μl of Substrate Mix to start reaction 4. Stop reaction with 25 μl of 6% SDS and read Ex544 Em 590

Row | Structure (SMILES) | IC50 [nM]
1 | O=C(CCC(F)(F)F)Nc1nnc([C@H]2CCC[C@H](c3nnc(NC(=O)CCC(F)(F)F)s3)C2)s1 [Compound 47, N,N′-(5,5′-((1S,3S)-cyclohexane-1,3-diyl)bis(1,3,4-thiadiazole-5,2-diyl))bis(4,4,4-trifluorobutanamide)] | 1000 to 2000
2 | O=C(Nc1nnc([C@H]2CCC[C@H](c3nnc(NC(=O)C4CCOC4)s3)C2)s1)C1CCOC1 (stereo partly drawn) [Compound 48, N,N′-(5,5′-((1S,3S)-cyclohexane-1,3-diyl)bis(1,3,4-thiadiazole-5,2-diyl))bis(tetrahydrofuran-3-carboxamide)] | 500 to 1000
3 | O=C(CC1CC1)Nc1nnc([C@H]2CCC[C@H](c3nnc(NC(=O)CC4CC4)s3)C2)s1 [Compound 49, N,N′-(5,5′-((1S,3S)-cyclohexane-1,3-diyl)bis(1,3,4-thiadiazole-5,2-diyl))bis(2-cyclopropylacetamide)] | 100 to 500
4 | O=C(Cc1ccc(Cl)cc1)Nc1nnc([C@H]2CCC[C@H](c3nnc(NC(=O)Cc4ccc(Cl)cc4)s3)C2)s1 [Compound 50] | 100 to 500
5 | O=C(Cc1ccccc1Cl)Nc1nnc([C@H]2CCC[C@H](c3nnc(NC(=O)Cc4ccccc4Cl)s3)C2)s1 [Compound 51, N,N′-(5,5′-((1S,3S)-cyclohexane-1,3-diyl)bis(1,3,4-thiadiazole-5,2-diyl))bis(2-(2-chlorophenyl)acetamide)] | 100 to 500
6 | Nc1cccc(CC(=O)Nc2nnc([C@H]3CCC[C@H](c4nnc(NC(=O)Cc5cccc(N)c5)s4)C3)s2)c1 [Compound 53, N,N′-(5,5′-((1S,3S)-cyclohexane-1,3-diyl)bis(1,3,4-thiadiazole-5,2-diyl))bis(2-(3-aminophenyl)acetamide)] | < 100
7 | CS(=O)(=O)c1cccc(CC(=O)Nc2nnc([C@H]3CCC[C@H](c4nnc(NC(=O)Cc5cccc(S(C)(=O)=O)c5)s4)C3)s2)c1 [Compound 54, N,N′-(5,5′-((1S,3S)-cyclohexane-1,3-diyl)bis(1,3,4-thiadiazole-5,2-diyl))bis(2-(3-(methylsulfonyl)phenyl)acetamide)] | < 100
8 | CC(=O)Nc1ccccc1CC(=O)Nc1nnc([C@H]2CCC[C@H](c3nnc(NC(=O)Cc4ccccc4NC(C)=O)s3)C2)s1 [Compound 55, N,N′-(5,5′-((1S,3S)-cyclohexane-1,3-diyl)bis(1,3,4-thiadiazole-5,2-diyl))bis(2-(2-acetamidophenyl)acetamide)] | 100 to 500
9 | O=C(Cc1nccs1)Nc1nnc([C@H]2CCC[C@H](c3nnc(NC(=O)Cc4nccs4)s3)C2)s1 [Compound 61] | 100 to 500
10 | O=C(Nc1nnc([C@H]2CCC[C@H](c3nnc(NC(=O)C4CCCC4)s3)C2)s1)C1CCCC1 [Compound 62, N,N′-(5,5′-((1S,3S)-cyclohexane-1,3-diyl)bis(1,3,4-thiadiazole-5,2-diyl))dicyclopentanecarboxamide] | 1000 to 2000
11 | CC(C)(CO)C(=O)Nc1nnc([C@H]2CCC[C@H](c3nnc(NC(=O)C(C)(C)CO)s3)C2)s1 [Compound 63, N,N′-(5,5′-((1S,3S)-cyclohexane-1,3-diyl)bis(1,3,4-thiadiazole-5,2-diyl))bis(3-hydroxy-2,2-dimethylpropanamide)] | 500 to 1000
12 | O=C(Cc1ccc([N+](=O)[O-])cc1)Nc1nnc([C@H]2CCC[C@H](c3nnc(NC(=O)Cc4ccc([N+](=O)[O-])cc4)s3)C2)s1 [Compound 64, N,N′-(5,5′-((1S,3S)-cyclohexane-1,3-diyl)bis(1,3,4-thiadiazole-5,2-diyl))bis(2-(4-nitrophenyl)acetamide)] | 1000 to 2000
13 | CC(=O)Nc1cccc(CC(=O)Nc2nnc([C@H]3CCC[C@H](c4nnc(NC(=O)Cc5cccc(NC(C)=O)c5)s4)C3)s2)c1 [Compound 65, N,N′-(5,5′-((1S,3S)-cyclohexane-1,3-diyl)bis(1,3,4-thiadiazole-5,2-diyl))bis(2-(3-acetamidophenyl)acetamide)] | < 100
14 | CS(=O)(=O)c1ccc(CC(=O)Nc2nnc([C@H]3CCC[C@H](c4nnc(NC(=O)Cc5ccc(S(C)(=O)=O)cc5)s4)C3)s2)cc1 [Compound 66, N,N′-(5,5′-((1S,3S)-cyclohexane-1,3-diyl)bis(1,3,4-thiadiazole-5,2-diyl))bis(2-(4-(methylsulfonyl)phenyl)acetamide)] | < 100
15 | O=C(Cc1cccc([N+](=O)[O-])c1)Nc1nnc([C@H]2CCC[C@H](c3nnc(NC(=O)Cc4cccc([N+](=O)[O-])c4)s3)C2)s1 [Compound 69, N,N′-(5,5′-((1S,3S)-cyclohexane-1,3-diyl)bis(1,3,4-thiadiazole-5,2-diyl))bis(2-(3-nitrophenyl)acetamide)] | < 100
16 | N#Cc1ccccc1CC(=O)Nc1nnc([C@H]2CCC[C@H](c3nnc(NC(=O)Cc4ccccc4C#N)s3)C2)s1 [Compound 72, N,N′-(5,5′-((1S,3S)-cyclohexane-1,3-diyl)bis(1,3,4-thiadiazole-5,2-diyl))bis(2-(2-cyanophenyl)acetamide)] | < 100
17 | N#Cc1ccc(CC(=O)Nc2nnc([C@H]3CCC[C@H](c4nnc(NC(=O)Cc5ccc(C#N)cc5)s4)C3)s2)cc1 [Compound 74, N,N′-(5,5′-((1S,3S)-cyclohexane-1,3-diyl)bis(1,3,4-thiadiazole-5,2-diyl))bis(2-(4-cyanophenyl)acetamide)] | 100 to 500
18 | O=C(Cc1ccccc1OC(F)(F)F)Nc1nnc([C@H]2CCC[C@H](c3nnc(NC(=O)Cc4ccccc4OC(F)(F)F)s3)C2)s1 [Compound 75, N,N′-(5,5′-((1S,3S)-cyclohexane-1,3-diyl)bis(1,3,4-thiadiazole-5,2-diyl))bis(2-(2-(trifluoromethoxy)phenyl)acetamide)] | 100 to 500
19 | O=C(CC1CCCO1)Nc1nnc([C@H]2CCC[C@H](c3nnc(NC(=O)CC4CCCO4)s3)C2)s1 (stereo partly drawn) [Compound 77, N,N′-(5,5′-((1S,3S)-cyclohexane-1,3-diyl)bis(1,3,4-thiadiazole-5,2-diyl))bis(2-(tetrahydrofuran-2-yl)acetamide)] | 1000 to 2000
20 | COc1cc(CC(=O)Nc2nnc([C@H]3CCC[C@H](c4nnc(NC(=O)Cc5ccc(F)c(OC)c5)s4)C3)s2)ccc1F [Compound 78, N,N′-(5,5′-((1S,3S)-cyclohexane-1,3-diyl)bis(1,3,4-thiadiazole-5,2-diyl))bis(2-(4-fluoro-3-methoxyphenyl)acetamide)] | 100 to 500
21 | O=C(CCc1ccccn1)Nc1nnc([C@H]2CCC[C@H](c3nnc(NC(=O)CCc4ccccn4)s3)C2)s1 [Compound 80, N,N′-(5,5′-((1S,3S)-cyclohexane-1,3-diyl)bis(1,3,4-thiadiazole-5,2-diyl))bis(3-(pyridin-2-yl)propanamide)] | 100 to 500
22 | Cc1ccccc1CC(=O)Nc1nnc([C@H]2CCC[C@H](c3nnc(NC(=O)Cc4ccccc4C)s3)C2)s1 [Compound 83, N,N′-(5,5′-((1S,3S)-cyclohexane-1,3-diyl)bis(1,3,4-thiadiazole-5,2-diyl))bis(2-o-tolylacetamide)] | 100 to 500
23 | O=C(CN1CCCC1=O)Nc1nnc([C@H]2CCC[C@H](c3nnc(NC(=O)CN4CCCC4=O)s3)C2)s1 [Compound 85, N,N′-(5,5′-((1S,3S)-cyclohexane-1,3-diyl)bis(1,3,4-thiadiazole-5,2-diyl))bis(2-(2-oxopyrrolidin-1-yl)acetamide)] | 500 to 1000
24 | O=C(Cc1ccccc1F)Nc1nnc([C@H]2CCC[C@H](c3nnc(NC(=O)Cc4ccccc4F)s3)C2)s1 [Compound 87, N,N′-(5,5′-((1S,3S)-cyclohexane-1,3-diyl)bis(1,3,4-thiadiazole-5,2-diyl))bis(2-(2-fluorophenyl)acetamide)] | < 100
25 | O=C(Cc1ccc(F)cc1)Nc1nnc([C@H]2CCC[C@H](c3nnc(NC(=O)Cc4ccc(F)cc4)s3)C2)s1 [Compound 88, N,N′-(5,5′-((1S,3S)-cyclohexane-1,3-diyl)bis(1,3,4-thiadiazole-5,2-diyl))bis(2-(4-fluorophenyl)acetamide)] | 100 to 500
26 | O=C(Cc1c(F)cccc1F)Nc1nnc([C@H]2CCC[C@H](c3nnc(NC(=O)Cc4c(F)cccc4F)s3)C2)s1 [Compound 89] | 100 to 500
